Test system: colorectal cancer cell lines (HT29 & HCT116)
Assay: Microarray gene expression, cells grown with Symadex at the GI50 concentration
Format: cell-based, human
From the text: Two colorectal cancer cell lines (HT29 & HCT116) were chosen for study, whose behavior as rapidly proliferating invasive cells could be generalized to many other such cell types from different tissue origins. The two lines were immortalized colon carcinomas. Their gene expression patterns are known to mimic the behavior of neuro-enteric cells and therefore provide an appropriate simulation of the kinds of regulatory patterns that would be found in cells of similar epithelial or endothelial origin. Cells with these ontological roots are also suitable models for the kinds of autoimmune and inflammatory susceptibilities that are common in tissues of neuroenteric origin, such as those in which inflammatory bowel disease would present itself.
Frozen cell pellets were lysed in triplicate and total RNA isolated by purification over spin columns (all reagents from Ambion). After QC acceptance for purity, total RNA was converted to cRNA by linear amplification and 10 μg samples were applied to CodeLink Human Whole Genome Bioarrays (GE Healthcare and GenUs Biosystems).
Arrays were processed in triplicate and comparisons made after robust statistical analysis of replicate variability. […] False discovery rates and representation in standardized gene ontologies/pathways were then determined by filtering the “fold” changes in expression with open access software packages, EASE and GoMiner, and with Pathways Analysis (Ingenuity Systems). Functional annotations were then explored further in the MedMiner literature search environment.
A listing of these is shown in Table 3, in which the first column data presents the fold change against control, the second column cites the gene symbol, the third column cites the Genbank Accession, and the fourth column provides an abridged description of the gene's function.

CCN(CC)CCNc1ccc2ncn3c4ccc(O)cc4c(=O)c1c23 [Symadex™, 5-[[(diethylamino)ethyl]amino]-8-hydroxyimidazo[4,5,1-de]-acridine-6-one]
Mean fold change over control: GGH (NM_003878): −1.96
Mean fold change over control: MPZL1 (NM_003953): −2.04
Mean fold change over control: C3AR1 (NM_004054): −15.52
Mean fold change over control: EIF2S1 (NM_004094): −2.13
Mean fold change over control: FEN1 (NM_004111): −2.87
Mean fold change over control: SLC1A2 (NM_004171): −11.21
Mean fold change over control: SLC9A3 (NM_004174): −15.57
Mean fold change over control: SNRPD3 (NM_004175): −2.31
Mean fold change over control: CDKL1 (NM_004196): −8.14
Mean fold change over control: PTTG1 (NM_004219): −2.43
Mean fold change over control: SLC22A13 (NM_004256): −11.51
Mean fold change over control: BAG2 (NM_004282): −2.22
Mean fold change over control: BAD (NM_004322): −2.08
Mean fold change over control: ERH (NM_004450): −3.39
Mean fold change over control: KCNQ2 (NM_004518): −24.13
Mean fold change over control: MYBPC2 (NM_004533): −21.22
Mean fold change over control: SPOCK (NM_004598): −6.57
Mean fold change over control: NMI (NM_004688): −2.41
Mean fold change over control: CCNB2 (NM_004701): −2.51
Mean fold change over control: PDCD5 (NM_004708): −2.21
Mean fold change over control: ZW10 (NM_004724): −2.31
Mean fold change over control: DDX1 (NM_004939): −2.09
Mean fold change over control: IBSP (NM_004967): −58.56
Mean fold change over control: CCL23 (NM_005064): −12.99
Mean fold change over control: COX6A2 (NM_005205): −23.19
Mean fold change over control: GJB5 (NM_005268): −62.09
Mean fold change over control: GPR15 (NM_005290): −80.43
Mean fold change over control: GPR24 (NM_005297): −13.80
Mean fold change over control: SULT1E1 (NM_005420): −10.91
Mean fold change over control: RQCD1 (NM_005444): −2.38
Mean fold change over control: ZNF265 (NM_005455): −2.03
Mean fold change over control: STMN1 (NM_005563): −2.41
Mean fold change over control: LCP2 (NM_005565): −11.85
Mean fold change over control: VDAC3 (NM_005662): −2.22
Mean fold change over control: D8S2298E (NM_005671): −1.88
Mean fold change over control: SCAMP3 (NM_005698): −2.00
Mean fold change over control: THOC4 (NM_005782): −3.41
Mean fold change over control: KLRG1 (NM_005810): −24.24
Mean fold change over control: DSCR1L1 (NM_005822): −9.75
Mean fold change over control: MSLN (NM_005823): −17.46
Mean fold change over control: SLC35B1 (NM_005827): −2.23
Mean fold change over control: CD5L (NM_005894): −13.25
Mean fold change over control: MCM6 (NM_005915): −1.97
Mean fold change over control: MCM7 (NM_005916): −2.69
Mean fold change over control: CD164 (NM_006016): −2.14
Mean fold change over control: DLEU2 (NM_006021): −3.39
Mean fold change over control: C10ORF7 (NM_006023): −2.11
Mean fold change over control: NFATC1 (NM_006162): −16.69
Mean fold change over control: TIMM23 (NM_006327): −2.02
Mean fold change over control: PPIH (NM_006347): −2.49
Mean fold change over control: SYNCRIP (NM_006372): −2.23
Mean fold change over control: SSSCA1 (NM_006396): −2.20
Mean fold change over control: RNASEH2A (NM_006397): −2.31
Mean fold change over control: SIVA (NM_006427): −2.78
Mean fold change over control: USP16 (NM_006447): −66.26
Mean fold change over control: PAICS (NM_006452): −2.03
Mean fold change over control: RPC62 (NM_006468): −2.22
Mean fold change over control: PIR51 (NM_006479): −3.73
Mean fold change over control: FARS1 (NM_006567): −2.11
Mean fold change over control: RBBP9 (NM_006606): −8.81
Mean fold change over control: NMU (NM_006681): −2.12
Mean fold change over control: U2AF1 (NM_006758): −1.99
Mean fold change over control: PRSS21 (NM_006799): −22.21
Mean fold change over control: KIF2C (NM_006845): −2.52
Mean fold change over control: CENTA1 (NM_006869): −19.89
Mean fold change over control: TRH (NM_007117): −8.14
Mean fold change over control: ZNF258 (NM_007167): −2.66
Mean fold change over control: DUSP12 (NM_007240): −2.18
Mean fold change over control: HSGT1 (NM_007265): −2.08
Mean fold change over control: DTYMK (NM_012145): −3.07
Mean fold change over control: TPSD1 (NM_012217): −13.71
Mean fold change over control: TFEC (NM_012252): −20.30
Mean fold change over control: RAD54B (NM_012415): −2.04
Mean fold change over control: SPO11 (NM_012444): −14.75
Mean fold change over control: TIMM10 (NM_012456): −2.23
Mean fold change over control: UMPK (NM_012474): −1.92
Mean fold change over control: HMMR (NM_012484): −2.94
Mean fold change over control: DNAJD1 (NM_013238): −2.24
Mean fold change over control: TAC3 (NM_013251): −12.26
Mean fold change over control: RACGAP1 (NM_013277): −2.31
Mean fold change over control: ALG5 (NM_013338): −2.71
Mean fold change over control: ANAPC4 (NM_013367): −1.92
Mean fold change over control: NRG1 (NM_013956): −17.54
Mean fold change over control: SLC27A6 (NM_014031): −18.72
Mean fold change over control: MRPL13 (NM_014078): −2.16
Mean fold change over control: TMEM4 (NM_014255): −2.21
Mean fold change over control: PLK4 (NM_014264): −2.39
Mean fold change over control: ITGB3BP (NM_014288): −2.73
Mean fold change over control: SULT4A1 (NM_014351): −293.18
Mean fold change over control: ZNRD1 (NM_014596): −2.17
Mean fold change over control: MEA (NM_014623): −2.39
Mean fold change over control: DCLRE1A (NM_014881): −3.14
Mean fold change over control: KIAA0089 (NM_015141): −7.23
Mean fold change over control: RCOR1 (NM_015156): −7.09
Mean fold change over control: ARL6IP (NM_015161): −2.29
Mean fold change over control: EGFL6 (NM_015507): −28.71
Mean fold change over control: GMNN (NM_015895): −2.81
Mean fold change over control: MRPL11 (NM_016050): −2.97
Mean fold change over control: MYO15A (NM_016239): −50.59
Mean fold change over control: DNAJB11 (NM_016306): −2.15
Mean fold change over control: POLR3K (NM_016310): −2.24
Mean fold change over control: NR2E3 (NM_016346): −14.89
Mean fold change over control: WWOX (NM_016373): −2.07
Mean fold change over control: RNF141 (NM_016422): −2.29
Mean fold change over control: POLA (NM_016937): −1.88
Mean fold change over control: PDE11A (NM_016953): −16.85
Mean fold change over control: MRPL39 (NM_017446): −2.20
Mean fold change over control: LIMS2 (NM_017980): −57.61
Mean fold change over control: FAIM (NM_018147): −3.32
Mean fold change over control: LPAAT-E (NM_018361, first entry): −11.94
Mean fold change over control: LPAAT-E (NM_018361, second entry): −2.40
Mean fold change over control: SIAT7A (NM_018414): −11.76
Mean fold change over control: LRP1B (NM_018557): −15.01
Mean fold change over control: TCP11 (NM_018679): −9.82
Mean fold change over control: BCAP29 (NM_018844): −2.17
Mean fold change over control: GDAP1 (NM_018972): −2.44
Mean fold change over control: ROBO4 (NM_019055): −11.95
Mean fold change over control: POLE4 (NM_019896): −2.04
Mean fold change over control: SARA1 (NM_020150): −2.14
Mean fold change over control: RAD18 (NM_020165): −2.28
Mean fold change over control: MRPL1 (NM_020236): −2.02
Mean fold change over control: NUP107 (NM_020401): −2.68
Mean fold change over control: KCNJ12 (NM_021012): −15.93
Mean fold change over control: MRPL23 (NM_021134): −2.29
Mean fold change over control: ATP2B3 (NM_021949): −9.43
Mean fold change over control: NUCKS (NM_022731): −2.02
Mean fold change over control: MIS12 (NM_024039): −2.20
Mean fold change over control: SUV39H2 (NM_024670): −2.33
Mean fold change over control: TXNDC (NM_030755): −2.13
Mean fold change over control: PHAX (NM_032177): −2.17
Mean fold change over control: PCDH7 (NM_032457): −19.65
Mean fold change over control: GPR54 (NM_032551): −2.56
Mean fold change over control: PHF5A (NM_032758): −2.95
Mean fold change over control: SYNE1 (NM_033071): −1481.77
Mean fold change over control: SLC7A13 (NM_138817): −27.75
Mean fold change over control: BBS2 (T26496): −23.65
number of down-regulated genes significantly represented in both cell types (array of 55,000 gene fragment accessions): 271

From US20060189546A1, “Compounds for treating autoimmune and demyelinating diseases” (priority 2005, published 2006)
